What all share (type): in vivo
In test [1] the test system is barnyardgrass (Echinochloa crus-galli L.). The test can be described thus: Test Example 1: foliar treatment, upland pot test, barnyardgrass. An excerpt:
(§1) Upland field soil was put into a 1/170,000 hectare pot, and seeds of various plants were sown. When the respective plants reached predetermined leaf stage ((1) barnyardgrass (Echinochloa crus-galli L.): 1.0 to 3.0 leaf stage, (2) crabgrass (Digitaria sanguinalis L.): 1.0 to 3.0 leaf stage, (3) green foxtail (Setaria viridis L.): 1.0 to 3.0 leaf stage, (4) redroot pigweed (Amaranthus retroflexus L.): cotyledon stage to 2.0 leaf stage, (5) prickly sida (Sida spinosa L.): cotyledon stage to 1.0 leaf stage, (6) velvetleaf (Abutilon theophrasti MEDIC.): 0.1 to 1.5 leaf stage, (7) rice (Oryza sativa L.): 1.0 to 3.0 leaf stage, (8) wheat (Triticum spp.): 1.7 to 3.4 leaf stage, (9) corn (Zea mays L.): 2.0 to 3.5 leaf stage, (10) soybean (Glycine max Merr.): primary leaf stage to 0.4 leaf stage), wettable powders or emulsifiable concentrates of the compounds of the above formula (I) prepared in accordance with a conventional preparation method, were weighed so that the active ingredients became the prescribed amounts, and diluted with water in an amount corresponding to 500 liter per 1 hectare (containing 0.1 vol % of “KUSARINOH”, manufactured by NIHON NOHYAKU CO., LTD. as an agricultural spreader). The spray solutions thus prepared were applied for foliar treatment by a small sprayer.
(§2) On the 17th to 25th day after application, the state of growth of the respective plants was visually observed, and the herbicidal effect was evaluated by a growth inhibition rate (%) of 0 (equivalent to the non-treated area) to 100% (complete kill).

The subject of test [2] is crabgrass (Digitaria sanguinalis L.). Nature of the test: Test Example 1: foliar treatment, upland pot test, crabgrass.
Excerpt: as §1, §2

In test [3] the test system is green foxtail (Setaria viridis L.). The test can be described thus: Test Example 1: foliar treatment, upland pot test, green foxtail.
Excerpt: as §1, §2

Test [4] relates to redroot pigweed (Amaranthus retroflexus L.). Nature of the test: Test Example 1: foliar treatment, upland pot test, redroot pigweed. Conditions: for Growth inhibition rate (%) Redroot pigweed: 31 g/ha active ingredient, observed 17th to 25th day after application.
Excerpt: as §1, §2

Test [5] deals with prickly sida (Sida spinosa L.). Nature of the test: Test Example 1: foliar treatment, upland pot test, prickly sida. Conditions: for Growth inhibition rate (%) Prickly sida: 31 g/ha active ingredient, observed 17th to 25th day after application.
Excerpt: as §1, §2

Test [6] relates to velvetleaf (Abutilon theophrasti MEDIC.). The test can be described thus: Test Example 1: foliar treatment, upland pot test, velvetleaf.
Excerpt: as §1, §2

Test [7] relates to rice (Oryza sativa L.). The test can be described thus: Test Example 1: foliar treatment, upland pot test, rice.
Excerpt: as §1, §2

Test [8] deals with corn (Zea mays L.). Nature of the test: Test Example 1: foliar treatment, upland pot test, corn.
Excerpt: as §1, §2

Test [9] has as its system soybean (Glycine max Merr.). Nature of the test: Test Example 1: foliar treatment, upland pot test, soybean.
Excerpt: as §1, §2

Test [10] relates to barnyardgrass (Echinochloa crus-galli L.). Nature of the test: Test Example 2: soil application on the day after sowing, barnyardgrass. Particulars: 250 g/ha active ingredient, observed 19th to 28th day after application. An excerpt: (§3) Upland field soil was put into a 1/170,000 hectare pot, and seeds of various plants barnyardgrass (Echinochloa crus-galli L.), crabgrass (Digitaria sanquinalis L.), green foxtail (Setaria viridis L.), redroot pigweed (Amaranthus retroflexus L.), prickly sida (Sida spinosa L.), velvetleaf (Abutilon theophrasti MEDIC.), rice (Oryza sativa L.), wheat (Triticum spp.), corn (Zea mays L.) and soybean (Glycine max Merr.)) were sown. On the day after sowing, wettable powders or emulsifiable concentrates of the compounds of the above formula (I) prepared in accordance with a conventional preparation method, were weighed so that the active ingredients became the prescribed amounts, and diluted with water in an amount corresponding to 500 liter per 1 hectare, followed by soil application with a small sprayer.
(§4) On the 19th to 28th day after the application, the state of growth of the respective plants was visually observed, and the herbicidal effect was evaluated by a growth inhibition rate (%) of from 0 (equivalent to the non-treated area) to 100% (complete kill).

The subject of test [11] is crabgrass (Digitaria sanquinalis L.). The test can be described thus: Test Example 2: soil application on the day after sowing, crabgrass. Particulars: 250 g/ha active ingredient, observed 19th to 28th day after application.
Excerpt: as §3, §4

The subject of test [12] is green foxtail (Setaria viridis L.). The test can be described thus: Test Example 2: soil application on the day after sowing, green foxtail. Particulars: 250 g/ha active ingredient, observed 19th to 28th day after application.
Excerpt: as §3, §4

Test [13] concerns redroot pigweed (Amaranthus retroflexus L.). Nature of the test: Test Example 2: soil application on the day after sowing, redroot pigweed. Conditions: 250 g/ha active ingredient, observed 19th to 28th day after application.
Excerpt: as §3, §4

Test [14] deals with prickly sida (Sida spinosa L.). Nature of the test: Test Example 2: soil application on the day after sowing, prickly sida. Conditions: 250 g/ha active ingredient, observed 19th to 28th day after application.
Excerpt: as §3, §4

Test [15] relates to velvetleaf (Abutilon theophrasti MEDIC.). The test can be described thus: Test Example 2: soil application on the day after sowing, velvetleaf. Particulars: 250 g/ha active ingredient, observed 19th to 28th day after application.
Excerpt: as §3, §4

For test [16], the system named is rice (Oryza sativa L.). The test can be described thus: Test Example 2: soil application on the day after sowing, rice. Conditions: 250 g/ha active ingredient, observed 19th to 28th day after application.
Excerpt: as §3, §4

The subject of test [17] is corn (Zea mays L.). Nature of the test: Test Example 2: soil application on the day after sowing, corn. Particulars: 250 g/ha active ingredient, observed 19th to 28th day after application.
Excerpt: as §3, §4

Test [18] concerns soybean (Glycine max Merr.). Nature of the test: Test Example 2: soil application on the day after sowing, soybean. Conditions: 250 g/ha active ingredient, observed 19th to 28th day after application.
Excerpt: as §3, §4

In test [19] the test system is wheat (Triticum spp.). The test can be described thus: Test Example 1: foliar treatment, upland pot test, wheat. Particulars: Triticum, 63 g/ha active ingredient, observed 21st day after application, read-out: Growth inhibition rate (%) Wheat.
Excerpt: as §1, §2

[20] abbreviates: 31 g/ha active ingredient, observed 17th to 25th day after application.

As to `Cc1c(C(=O)c2cnn(C)c2O)ccc(S(C)(=O)=O)c1COCC(F)(F)F` [compound 160], the “Growth inhibition rate (%) Barnyardgrass” value in test [1] (setting [20]) stood at 90%; in test [10] it was 100%. Further, the “Growth inhibition rate (%) Crabgrass” value in [2] (setting [20]) and in [11] was 100% each time. In addition, the entries for the “Growth inhibition rate (%) Green foxtail” value in test [3] (setting [20]) and in test [12] were 75% and 100%, respectively. Also, the “Growth inhibition rate (%) Redroot pigweed” value in test [4] came out at 98%; in test [13] it was 100%. Moreover, the “Growth inhibition rate (%) Prickly sida” value is recorded as 60% in [5] and 95% in test [14]. The “Growth inhibition rate (%) Velvetleaf” value in test [6] (setting [20]) and in test [15] was 100% throughout. Further, the “Growth inhibition rate (%) Rice” value in test [7] (setting [20]) is on record as 50%; in test [16], 100%. The “Growth inhibition rate (%) Corn” value in [8] (setting [20]) and in [17] was 0% throughout. The “Growth inhibition rate (%) Soybean” value is 98% in test [9] (setting [20]) and 50% in test [18].
With `COC(C)COc1c(S(C)(=O)=O)ccc(C(=O)c2cnn(C)c2O)c1C` (stereo not drawn) [compound 227], the figures for the “Growth inhibition rate (%) Barnyardgrass” value in [1] (setting [20]) and in test [10] were 95% and 100%, respectively. For the same compound, the results for the “Growth inhibition rate (%) Crabgrass” value in [2] (setting [20]) and in test [11] were 60% and 100%, respectively. Moreover, the “Growth inhibition rate (%) Green foxtail” value in test [3] (setting [20]) was 98%; in test [12], 100%. For the same compound, the “Growth inhibition rate (%) Redroot pigweed” value in [4] and in test [13] was 100% in each case. The entries for the “Growth inhibition rate (%) Prickly sida” value in test [5] and in [14] were 90% and 98%, respectively. The “Growth inhibition rate (%) Velvetleaf” value in [6] (setting [20]) and in [15] was 100% each time. Further, the figures for the “Growth inhibition rate (%) Rice” value in test [7] (setting [20]) and in test [16] were 80% and 100%, respectively. Also, the “Growth inhibition rate (%) Corn” value in test [8] (setting [20]) and in test [17] was 0% each time. Further, the figures for the “Growth inhibition rate (%) Soybean” value in test [9] (setting [20]) and in test [18] were 100% and 10%, respectively.
For `CCn1ncc(C(=O)c2ccc(S(C)(=O)=O)c(OCC3OCCO3)c2Cl)c1O` [compound 250], the inhibition at 63 g/ha in test [1] (Echinochloa crus-galli, 63 g/ha active ingredient, observed 21st day after application, read-out: Growth inhibition rate (%) Barnyardgrass) stood at 100%; in test [2] (Digitaria sanguinalis, 63 g/ha active ingredient, observed 21st day after application, read-out: Growth inhibition rate (%) Crabgrass), 98%; in test [3] (Setaria viridis, 63 g/ha active ingredient, observed 21st day after application, read-out: Growth inhibition rate (%) Green foxtail) it was 80%; in [4] (Amaranthus retroflexus, 63 g/ha active ingredient, observed 21st day after application, read-out: Growth inhibition rate (%) Redroot pigweed), 100%; in [5] (Sida spinosa, 63 g/ha active ingredient, observed 21st day after application, read-out: Growth inhibition rate (%) Prickly sida), 60%; in test [6] (Abutilon theophrasti, 63 g/ha active ingredient, observed 21st day after application, read-out: Growth inhibition rate (%) Velvetleaf), 95%. Further, the inhibition at 63 g/ha in test [7] (Oryza sativa, 63 g/ha active ingredient, observed 21st day after application, read-out: Growth inhibition rate (%) Rice) amounted to 0%; in test [19] it was 0%; in test [8] (Zea mays, 63 g/ha active ingredient, observed 21st day after application, read-out: Growth inhibition rate (%) Corn) it was 10%; in test [9] (Glycine max, 63 g/ha active ingredient, observed 21st day after application, read-out: Growth inhibition rate (%) Soybean), 90%.
Consider `Cc1c(C(=O)c2cnn(C)c2O)ccc(S(C)(=O)=O)c1CC1OCCO1` [compound 256], for which the inhibition at 31 g/ha in test [1] (Echinochloa crus-galli, 31 g/ha active ingredient, observed 17th to 25th day after application, read-out: Growth inhibition rate (%) Barnyardgrass) came to 100%; in test [2] (Digitaria sanguinalis, 31 g/ha active ingredient, observed 17th to 25th day after application, read-out: Growth inhibition rate (%) Crabgrass), 90%; in [3] (Setaria viridis, 31 g/ha active ingredient, observed 17th to 25th day after application, read-out: Growth inhibition rate (%) Green foxtail), 70%; in test [6] (Abutilon theophrasti, 31 g/ha active ingredient, observed 17th to 25th day after application, read-out: Growth inhibition rate (%) Velvetleaf), 100%; in test [7] (Oryza sativa, 31 g/ha active ingredient, observed 17th to 25th day after application, read-out: Growth inhibition rate (%) Rice), 60%; in test [8] (Zea mays, 31 g/ha active ingredient, observed 17th to 25th day after application, read-out: Growth inhibition rate (%) Corn), 0%. Moreover, in [9] (Glycine max, 31 g/ha active ingredient, observed 17th to 25th day after application, read-out: Growth inhibition rate (%) Soybean), the inhibition at 31 g/ha is 80%. Also, the inhibition at 250 g/ha worked out at 100% in test [10] (Echinochloa crus-galli, read-out: Growth inhibition rate (%) Barnyardgrass); 100% in test [11] (Digitaria, read-out: Growth inhibition rate (%) Crabgrass); 95% in test [12] (Setaria viridis, read-out: Growth inhibition rate (%) Green foxtail); 60% in test [14] (Sida spinosa, read-out: Growth inhibition rate (%) Prickly sida); 80% in test [15] (Abutilon theophrasti, read-out: Growth inhibition rate (%) Velvetleaf); 80% in test [16] (Oryza sativa, read-out: Growth inhibition rate (%) Rice). Also, the inhibition at 250 g/ha in test [17] (Zea mays, read-out: Growth inhibition rate (%) Corn) is 0%.
On to `Cc1c(C(=O)c2cnn(C)c2O)ccc(S(C)(=O)=O)c1COC(C)C` [compound 257], for which the “Growth inhibition rate (%) Barnyardgrass” value is recorded as 100% in test [1] (setting [20]) and 90% in test [10]. In addition, the “Growth inhibition rate (%) Crabgrass” value in [2] (setting [20]) amounted to 90%; in [11], 100%. Moreover, the figures for the “Growth inhibition rate (%) Green foxtail” value in test [3] (setting [20]) and in [12] were 98% and 60%, respectively. Moreover, the “Growth inhibition rate (%) Redroot pigweed” value in [4] is 85%; in test [13], 98%. For the same compound, the “Growth inhibition rate (%) Prickly sida” value in test [5] came to 75%; in [14], 70%. Besides, the “Growth inhibition rate (%) Velvetleaf” value in test [6] (setting [20]) was 98%; in test [15], 80%. Besides, the “Growth inhibition rate (%) Rice” value in [7] (setting [20]) and in test [16] was 90% throughout. Moreover, the “Growth inhibition rate (%) Corn” value in test [8] (setting [20]) and in [17] was 0% each time. Besides, the “Growth inhibition rate (%) Soybean” value is 70% in test [9] (setting [20]) and 0% in [18].

These data come from US20100317528A1, “HERBICIDE CONTAINING BENZOYLPYRAZOLE COMPOUND” (ISHIHARA SANGYO KAISHA, LTD., priority 2006, published 2010).
